Each structure is given as a SMILES string. In brackets after ≈: the same amount, converted by molar mass. Several values for one entry are separate records, joined by “and”; a condition that tells them apart may be missing. Identical values can stand only once.

Drawing on DBAASP, this text covers MIC for eight compounds.

Some test systems named below: Klebsiella aerogenes; Candida albicans; Staphylococcus aureus MR; Proteus vulgaris; Bacillus subtilis 168.
What all share (test): ≥ marks a high value that may be exact or a test limit, other limits are often not marked, values filed in µg/mL are converted to µM
Assay [1] deals with Pseudomonas aeruginosa PAO1.
Assay [2] deals with Staphylococcus aureus KCTC 1916.
The subject of assay [3] is Pseudomonas aeruginosa KCTC 1637.
Assay [4] deals with Escherichia coli KCTC 1682.
Assay [5] concerns Bacillus subtilis KCTC 3068.
Assay [6] has as its system Salmonella typhimurium KCTC 1926.
Assay [7] concerns Staphylococcus epidermidis KCTC 1917.
Assay [8] relates to Bacillus subtilis IFO 3513.
For assay [9], the system named is Staphylococcus aureus IFO 12732.
Assay [10] has as its system Escherichia coli IFO 12734.
For assay [11], the system named is Micrococcus luteus ATCC 9341.
Assay [12] concerns Pseudomonas aeruginosa ATCC 27853.
The subject of assay [13] is Staphylococcus aureus ATCC 49476.
The test system of assay [14] is Bacillus megaterium KCTC 1096.
Assay [15] relates to Staphylococcus aureus KCTC 1621.
Assay [16] concerns Trichosporon beigelii KCTC 7251.
Assay [17] concerns Fusarium oxysporum KCTC 6084.
Assay [18] concerns Aspergillus flavus KCTC 7375.
Assay [19] relates to Bacillus subtilis KCTC 1918.
Assay [20] relates to Candida albicans KCTC 7121.
For assay [21], the system named is Staphylococcus aureus VRSA1.
Assay [22] has as its system Micrococcus luteus CCM 144.
For assay [23], the system named is Staphylococcus aureus MU50.

As to `CC(C)C[C@H](NC(=O)[C@H](CCCCN)NC(=O)[C@H](CCCCN)NC(=O)[C@H](Cc1ccccc1)NC(=O)[C@H](Cc1ccccc1)NC(=O)[C@H](CCCCN)NC(=O)[C@H](CCCCN)NC(=O)[C@H](Cc1ccccc1)NC(=O)[C@H](CCCN=C(N)N)NC(=O)[C@@H](N)CCCCN)C(=O)N[C@@H](CCCCN)C(=O)N[C@@H](CC(N)=O)C(=O)N[C@@H](CO)C(=O)N[C@H](C(=O)N[C@@H](CCCCN)C(=O)N[C@@H](CCCCN)C(=O)N[C@@H](CCCN=C(N)N)C(=O)N[C@@H](C)C(=O)N[C@@H](CCCCN)C(=O)N[C@@H](CCCCN)C(=O)N[C@@H](Cc1ccccc1)C(=O)N[C@@H](Cc1ccccc1)C(=O)N[C@@H](CCCCN)C(=O)N[C@@H](CCCCN)C(=O)O)C(C)C` [KRFKKFFKKLKNSVKKRAKKFFKK], the MIC (as a rule, the smallest concentration in the dilution series that meets the test's criterion for growth inhibition) is 7.77 µM and 3.56 µM in assay [1]; 7.77 µM and 3.88 µM in the assay on Klebsiella aerogenes.
With `CC[C@H](C)[C@H](NC(=O)[C@H](CCCN=C(N)N)NC(=O)[C@H](CC(C)C)NC(=O)[C@H](CCC(N)=O)NC(=O)[C@H](CCCCN)NC(=O)[C@H](CC(C)C)NC(=O)[C@H](CC(C)C)NC(=O)[C@H](CC(C)C)NC(=O)[C@@H](NC(=O)[C@H](CCCCN)NC(=O)[C@H](CC(=O)O)NC(=O)[C@H](C)NC(=O)[C@@H](NC(=O)[C@H](CCCCN)NC(=O)[C@@H](N)CCCCN)C(C)C)C(C)C)C(=O)N[C@@H](CCSC)C(=O)N[C@@H](CCCN=C(N)N)C(=O)N[C@@H](CC(C)C)C(=O)O` [KKVADKVLLLKQLRIMRL], the MIC in assay [2] was 8 µM (≈ 17.3 µg/mL); in assay [3] it was at least 32 µM; in [4], 16 µM (≈ 34.7 µg/mL); in assay [5] it was 2 µM (≈ 4.33 µg/mL); in assay [6], at least 64 µM; in assay [7], at least 32 µM.
`CC[C@H](C)[C@H](N)C(=O)N[C@@H](CC(C)C)C(=O)N1CCC[C@H]1C(=O)N[C@@H](CC(C)C)C(=O)N[C@@H](CCCCN)C(=O)N[C@@H](CC(C)C)C(=O)N1CCC[C@H]1C(=O)N[C@@H](CC(C)C)C(=O)N[C@@H](CC(C)C)C(=O)N1CCC[C@H]1C(=O)N[C@@H](CC(C)C)C(=O)N[C@@H](CCCN=C(N)N)C(=O)N[C@@H](CCCN=C(N)N)C(N)=O` [ILPLKLPLLPLRR]: the MIC in assay [8] amounted to 4.05 µM (≈ 6.25 µg/mL); in [9] it was 2.03 µM (≈ 3.13 µg/mL); in assay [10], 16.2 µM (≈ 25 µg/mL); in assay [11], 25 µM (≈ 38.5 µg/mL).
`CC[C@H](C)[C@H](NC(=O)[C@H](Cc1cnc[nH]1)NC(=O)[C@H](CCCCN)NC(=O)CNC(=O)[C@@H](NC(=O)[C@H](CO)NC(=O)[C@H](Cc1ccccc1)NC(=O)[C@H](CC(C)C)NC(=O)CNC(=O)CNC(=O)[C@@H](NC(=O)[C@@H](NC(=O)[C@H](Cc1cnc[nH]1)NC(=O)[C@H](Cc1cnc[nH]1)NC(=O)[C@@H](NC(=O)[C@@H](N)Cc1ccccc1)[C@@H](C)CC)[C@@H](C)CC)[C@@H](C)CC)C(C)C)C(=O)N[C@@H](Cc1cnc[nH]1)C(=O)N[C@@H](CO)C(=O)N[C@@H](CC(C)C)C(=O)N[C@H](C(=O)N[C@@H](Cc1cnc[nH]1)C(=O)N[C@@H](CCCN=C(N)N)C(=O)N[C@@H](CCCN=C(N)N)C(=O)N[C@@H](CCCN=C(N)N)C(=O)N[C@@H](CCCN=C(N)N)C(=O)O)[C@@H](C)CC` [FIHHIIGGLFSVGKHIHSLIHRRRR]: the MIC in assay [12] is above 171 µM; against Candida albicans, 42.8 µM (≈ 128 µg/mL); in assay [13] it was 5.36 µM (≈ 16 µg/mL); against Staphylococcus aureus MR, 5.36 µM (≈ 16 µg/mL).
Consider `CC[C@H](C)[C@H](NC(=O)[C@H](CC(C)C)NC(=O)[C@@H]1CCCN1C(=O)[C@H](Cc1c[nH]c2ccccc12)NC(=O)[C@H](CCCCN)NC(=O)[C@H](CCCCN)NC(=O)[C@@H]1CCCN1C(=O)[C@H](CCCCN)NC(=O)[C@H](CC(C)C)NC(=O)[C@@H]1CCCN1C(=O)[C@H](Cc1c[nH]c2ccccc12)NC(=O)[C@H](CCCN=C(N)N)NC(=O)[C@@H](N)CCCN=C(N)N)C(N)=O` [RRWPLKPKKWPLI], for which the MIC in [8] worked out at 7.28 µM (≈ 12.5 µg/mL); in [9], 7.28 µM (≈ 12.5 µg/mL); in assay [10] it was 29.1 µM (≈ 50 µg/mL).
Consider `CC[C@H](C)[C@H](NC(=O)[C@H](CCCCN)NC(=O)[C@H](CCCCN)NC(=O)[C@H](Cc1ccccc1)NC(=O)[C@@H](N)Cc1c[nH]c2ccccc12)C(=O)N1CCC[C@H]1C(=O)N[C@@H](CCCCN)C(=O)N[C@@H](Cc1ccccc1)C(=O)N[C@@H](CC(C)C)C(=O)N[C@@H](Cc1cnc[nH]1)C(=O)N[C@@H](CC(C)C)C(=O)N[C@@H](C)C(=O)N[C@@H](CCCCN)C(=O)N[C@@H](CCCCN)C(=O)N[C@@H](Cc1ccccc1)C(N)=O` [WFKKIPKFLHLAKKF], for which the MIC against Proteus vulgaris was 1.56 µM (≈ 3.01 µg/mL); in [14] it was 1.56 µM (≈ 3.01 µg/mL); in [3], 1.56 µM (≈ 3.01 µg/mL); in assay [15] it was 3.12 µM (≈ 6.03 µg/mL); in assay [16] it was at least 100 µM; in assay [17], at least 100 µM. In addition, the MIC in assay [4] was 12.5 µM (≈ 24.1 µg/mL); in assay [18] it was at least 100 µM; in assay [19], 0.78 µM (≈ 1.51 µg/mL); in [20], at least 100 µM.
Turning to `CC[C@H](C)[C@H](NC(=O)[C@H](CCCCN)NC(=O)[C@H](CCCCN)NC(=O)[C@@H](N)Cc1c[nH]c2ccccc12)C(=O)N1CCC[C@H]1C(=O)N[C@@H](CCCCN)C(=O)N[C@@H](Cc1ccccc1)C(=O)N[C@@H](CC(C)C)C(=O)N[C@@H](Cc1cnc[nH]1)C(=O)N[C@@H](CC(C)C)C(=O)N[C@@H](C)C(=O)N[C@@H](CCCCN)C(=O)N[C@@H](CCCCN)C(=O)N[C@@H](Cc1ccccc1)C(N)=O` [WKKIPKFLHLAKKF], the MIC in the assay with Proteus vulgaris was 3.12 µM (≈ 5.57 µg/mL); in assay [14] it was 1.56 µM (≈ 2.78 µg/mL); in assay [3] it was 3.12 µM (≈ 5.57 µg/mL); in [15] it was 3.12 µM (≈ 5.57 µg/mL); in assay [16] it was at least 200 µM; in assay [17], at least 200 µM. In addition, the MIC is 12.5 µM (≈ 22.3 µg/mL) in assay [4], at least 200 µM in assay [18], 0.78 µM (≈ 1.39 µg/mL) in assay [19] and at least 200 µM in assay [20].
In the case of `CC[C@H](C)[C@@H]1NC(=O)[C@@H]2CSSC[C@@H]3NC(=O)[C@H](CCCCN)NC(=O)[C@H](CC(=O)O)NC(=O)[C@H](CCC(N)=O)NC(=O)[C@H](Cc4ccccc4)NC(=O)[C@H](Cc4ccccc4)NC(=O)[C@@H]4CCCN4C(=O)[C@@H](NC(=O)[C@H](Cc4ccc(O)cc4)NC(=O)[C@H](Cc4ccc(O)cc4)NC(=O)CNC(=O)CN)CSSC[C@H](NC(=O)[C@H](Cc4ccc(O)cc4)NC(=O)CNC(=O)[C@H](C)NC(=O)[C@H](CCCCN)NC(=O)[C@H](CCCN=C(N)N)NC(=O)CNC(=O)[C@H](Cc4ccccc4)NC(=O)[C@H](CO)NC(=O)[C@H](CCCN=C(N)N)NC(=O)[C@H](CSSC[C@@H](C(=O)N[C@H](C(=O)O)C(C)C)NC1=O)NC(=O)[C@H](Cc1cnc[nH]1)NC(=O)[C@H](CCCN=C(N)N)NC(=O)[C@H](Cc1cnc[nH]1)NC3=O)C(=O)NCC(=O)NCC(=O)N[C@@H](Cc1ccccc1)C(=O)N[C@@H](CC(C)C)C(=O)N[C@@H](CCCCN)C(=O)N[C@@H](CCCCN)C(=O)N[C@@H]([C@@H](C)O)C(=O)N2` [GGYYCPFFQDKCHRHCRSFGRKAGYCGGFLKKTCICV], the MIC in assay [21] was 7.55 µM (≈ 32 µg/mL); in assay [22], 0.75 µM (≈ 3.17 µg/mL); in assay [23] it was 7.55 µM (≈ 32 µg/mL); with Bacillus subtilis 168, 1.5 µM (≈ 6.35 µg/mL); against Staphylococcus aureus MR, 3.78 µM (≈ 16 µg/mL).
